Measured values published in patent publication US6673821B2, “Nitrogen heterocycle inhibitors of aspartyl protease” (Enanta Pharmaceuticals, Inc., priority 2001, dated 2004).

Molecular target: HIV-1 protease (Human immunodeficiency virus type 1 group M subtype B, UniProt P04585)
Assay: Biological assay for inhibition of microbial expressed viral protease (HIV-1 protease)
Assay type: biochemical
Excerpt: Insofar as compounds of the invention are able to inhibit the replication of the HIV virus in human T-cells and furthermore, may be delivered orally to mammals, they are of evident clinical utility for the treatment of HIV infection. These tests are predictive of the compounds ability to inhibit HIV protease in vivo. We have measured the inhibition constants of each compound against HIV-1 protease using essentially the method described by M. W. Pennington et al., Peptides 1990, Gimet, E. and D. Andrew, Eds., Escom; Leiden, Netherlands (1990).
Biological Assay for Inhibition of Microbial Expressed Viral Protease
The inhibition constants against HIV-1 protease were measured using the method described by M. V. Toth and G. R. Marshall, Int. J. Peptide protein Res., 1990, 544. The method described M. W. Pennington et al., Peptides 1990, Gimet, E. and D. Andrew, Eds., Escom; Leiden, Netherlands (1990) may also be used. Inhibition is measured as IC50 in μM. The person of skill would accept these tests as predictive of the compounds' utility in vivo to treat HIV infected patients.

| Structure (SMILES) | IC50 |
| --- | --- |
| CC(C)(C)OC(=O)NC(Cc1ccccc1)C(O)C1SCCN1S(=O)(=O)c1cccc2cccnc12 (stereo not shown) [EP-001153] | 5 to 20 µM |
| CC(C)(C)OC(=O)NC(Cc1ccccc1)C(O)C1SCCN1S(=O)(=O)c1ccc(OC(F)(F)F)cc1 (stereo not shown) [EP-001155] | 5 to 20 µM |
| CC(C)(C)OC(=O)NC(Cc1ccccc1)C(O)C1SCCN1S(=O)(=O)c1ccccc1 (stereo not shown) [EP-001156] | < 5 µM |
| CC(C)(C)OC(=O)NC(Cc1ccccc1)C(O)C1SCCN1S(=O)(=O)c1ccc([N+](=O)[O-])cc1 (stereo not shown) [EP-001157] | < 5 µM |
| CC(C)c1ccc(S(=O)(=O)N2CCSC2C(O)C(Cc2ccccc2)NC(=O)OC(C)(C)C)cc1 (stereo not shown) [EP-001159] | 5 to 20 µM |
| Cc1c(O)cccc1C(=O)NC(Cc1ccccc1)C(O)C1SCCN1S(=O)(=O)c1ccc(F)cc1 (stereo not shown) [EP-001161] | < 5 µM |
| Cc1cccc(C)c1OCC(=O)NC(Cc1ccccc1)C(O)C1SCCN1S(=O)(=O)c1ccc(F)cc1 (stereo not shown) [EP-001162] | < 5 µM |
| O=C(COc1ccccc1)NC(Cc1ccccc1)C(O)C1SCCN1S(=O)(=O)c1ccc(F)cc1 (stereo not shown) [EP-001163] | > 20 µM |
| CC(Oc1ccccc1)C(=O)NC(Cc1ccccc1)C(O)C1SCCN1S(=O)(=O)c1ccc(F)cc1 (stereo not shown) [EP-001164] | > 20 µM |
| O=C(COc1cccc2ccccc12)NC(Cc1ccccc1)C(O)C1SCCN1S(=O)(=O)c1ccc(F)cc1 (stereo not shown) [EP-001165] | > 20 µM |
| O=C(COc1ccc2ccccc2c1)NC(Cc1ccccc1)C(O)C1SCCN1S(=O)(=O)c1ccc(F)cc1 (stereo not shown) [EP-001166] | > 20 µM |
| O=C(NC(Cc1ccccc1)C(O)C1SCCN1S(=O)(=O)c1ccc(F)cc1)OC1CCOC1 (stereo not shown) [EP-001169] | < 5 µM |
| O=C(Cc1ccccc1)NC(Cc1ccccc1)C(O)C1SCCN1S(=O)(=O)c1ccc(F)cc1 (stereo not shown) [EP-001171] | > 20 µM |
| CC(C)(C)OC(=O)NC(Cc1ccccc1)C(O)C1SCCN1S(=O)(=O)c1ccc(N)cc1 (stereo not shown) [EP-001172] | < 5 µM |
| COCCOC(=O)NC(Cc1ccccc1)C(O)C1SCCN1S(=O)(=O)c1ccc(F)cc1 (stereo not shown) [EP-001184] | < 5 µM |
| Cc1c(O)cccc1C(=O)NC(Cc1ccccc1)C(O)C1SCCN1S(=O)(=O)c1ccc(N)cc1 (stereo not shown) [EP-001195] | < 5 µM |
